Measured values reported in patent US20240180872A1, “METHODS AND COMPOUNDS OF CANNABIDIOL, MELATONIN AND AKBA FOR TREATING PANCREATIC CANCER” (priority 2021, published 2024).

Assays:
[1] = tested on: U251 Glioblastoma cell line; test: Cytotoxicity assay (MTT, 72 hours, daily administration) in U251; type: cell-based; conditions: Homo sapiens, U-251, read-out: % VIABILITY ± S.D.
Description: (§1) The combinations were effective in other human tumor cell lines and we tested in glioblastoma cell line and endometrial cancer cell Additional tests include data obtained from two independent experiments, six wells for dose.

[2] = tested on: pancreatic adenocarcinoma associated genes; test: TaqMan Array gene expression in PANC-1, normalized for GAPDH; conditions: 24 hs, CBD 3.8, MLT 200, AKBA 7.5 micrograms/ml
Procedure: Total RNA from untreated or CBD, MLT, AKBA alone and in combination treated cell lines was extracted using Rneasy Mini kit (Qiagen, Milan, Italy). One microgram of total RNA from each sample was subjected to reverse transcription in a total volume of 20 μL using the High-Capacity cDNA Archive Kit (Applied Biosystem, Foster City, […], USA) according to the instructions. cDNAs were analyzed by qRT-PCR performed using an IQ5 Multicolor Real time PCR Detection system. Quantitative real-time gene expression was performed with the TaqMan® Array Human Pancreatic Adenocarcinoma 96-well Plate, containing 92 assays to pancreatic adenocarcinoma associated genes and 4 assays to candidate endogenous control genes, was purchased (Thermo Fisher, Grand Island, NY, USA) and used to evaluate the treatments in modulating PDAC-related genes (Table 1). Measurement of different housekeeping genes (GAPDH; HPRT1; GUSB) on the samples was used to normalize mRNA content. The gene expression levels of treated cell lines were expressed as relative fold compared with untreated or vehicle-treated cells.
To elucidate the molecular events induced by CBD, MLT and AKBA alone and in combination, 92 genes involved in PDAC progression and aggressiveness were evaluated by Taqman Array. Both cell lines were treated with CBD, MLT and AKBA alone and in combination, and the molecular pathways of PDAC associated gene were evaluated.
Target mRNA levels were normalized for GAPDH expression.

[3] = tested on: MIAPaCa-2 cell line; test: Cytotoxicity assay (MTT, 72 hours, daily administration) in MIAPaCa-2; conditions: Homo sapiens, MIA PaCa-2, read-out: % VIABILITY ± S.D.
Procedure: (§2) Human pancreatic ductal adenocarcinoma (PANC-1 and MIAPaCa-2) cell lines were purchased by Sigma Aldrich (Milan, Italy) and cultured in DMEM high glucose medium (EuroClone, Milan, Italy) supplemented with 10% of fetal bovine serum (FBS), 2 mM L-glutamine, 100 IU/mL penicillin, 100 mg streptomycin and 1 mM sodium pyruvate. Cell lines were maintained at 37° C. with 5% CO2 and 95% of humidity.
(§3) 3×10^4 cells/mL were seeded in 96-well plates in a final volume of 100 L/well. After one day of incubation, compounds or vehicles, alone or in combination, were added and six replicates were used for each treatment and all experiments were repeated three times. In all the experiments, the treatment was daily added, after washing with fresh medium. After 72 hours cell viability was investigated by adding 0.8 mg/mL of 3-[4,5-dimethylthiazol-2-yl]-2,5 diphenyl tetrazolium bromide (MTT) (Sigma Aldrich) to the media. After 3 h the supernatant was removed, and the pellet of salt crystals was solubilized with 100 μL/well of DMSO. The absorbance of the sample against a background control was measured at 570 nm using an ELISA reader microliter plate (BioTek Instruments, Winooski, VT, USA).
(§4) Cytotoxicity in PDAC cell lines: The effect of CBD, MLT and AKBA in reducing cell viability was evaluated at 72 hours, post daily administration, in PDAC cell lines. Cells were treated with different doses of CBD, MLT and AKBA (up to 1 mg) and percentage of cell viability was evaluated by the MTT assay. […] The compounds were administered daily for 72 hours, as in previous experiments at the desired doses. […] MTT assay was used to analyse the cell cytotoxicity.

[4] = tested on: PANC-1 cell line; test: Cytotoxicity assay (MTT, 72 hours, daily administration) in PANC-1; conditions: Homo sapiens, PANC-1, read-out: % VIABILITY ± S.D.
Procedure: as §2, §3, §4

[5] = tested on: PCEM004a endometrial cancer cell line; test: Cytotoxicity assay (MTT, 72 hours, daily administration) in PCEM004a; type: cell-based; conditions: Homo sapiens, read-out: % VIABILITY ± S.D.
Description: as §1

C=C(C)[C@@H]1CCC(C)=C[C@H]1c1c(O)cc(CCCCC)cc1O [CBD, 2-[(1R,6R)-3-methyl-6-prop-1-en-2-ylcyclohex-2-en-1-yl]-5-pentylbenzene-1,3-diol]
viability at 1.9 µg/mL ([1]; CBD 1.9 micrograms/ml): 100 ± 7.1%
viability at 3.8 µg/mL ([1]; CBD 3.8 micrograms/ml): 100 ± 5.5%
viability at 7.6 µg/mL ([1]; CBD 7.6 micrograms/ml): 97 ± 10.1%
viability at 15.2 µg/mL ([1]; CBD 15.2 micrograms/ml): 65.2 ± 4.3%
AKT3 mRNA relative expression ([2]; VEI 0.00): 0.00
ARHGEF7 mRNA relative expression ([2]; VEI 0.00): 0.00
BCL2 mRNA relative expression ([2]; VEI 0.00): 0.00
CCND2 mRNA relative expression ([2]; VEI 0.00): 0.00
CDKN2B mRNA relative expression ([2]; VEI 0.00): 0.35
CYP2E1 mRNA relative expression ([2]; VEI 0.00): 0.00
EGF mRNA relative expression ([2]; VEI 0.00): 0.00
IGF1 mRNA relative expression ([2]; VEI 0.00): 0.00
IL6 mRNA relative expression ([2]; VEI 0.00): 0.00
KDR mRNA relative expression ([2]; VEI 0.00): 0.00
KIT mRNA relative expression ([2]; VEI 0.00): 0.00
MAPK3 mRNA relative expression ([2]; VEI 0.00): 0.01
MMP1 mRNA relative expression ([2]; VEI 0.00): 0.00
MMP3 mRNA relative expression ([2]; VEI 0.00): 0.00
TGFA mRNA relative expression ([2]; VEI 0.00): 0.71
TGFB2 mRNA relative expression ([2]; VEI 0.00): 0.08
JAK2 mRNA relative expression ([2]; VEI 0.01): 0.01
JAK3 mRNA relative expression ([2]; VEI 0.01): 0.01
MMP7 mRNA relative expression ([2]; VEI 0.01): 0.01
MMP9 mRNA relative expression ([2]; VEI 0.01): 0.01
PK3CA mRNA relative expression ([2]; VEI 0.01): 0.02
RAC2 mRNA relative expression ([2]; VEI 0.01): 0.01
RB1 mRNA relative expression ([2]; VEI 0.01): 0.05
TGFB3 mRNA relative expression ([2]; VEI 0.01): 0.00
TGFBR1 mRNA relative expression ([2]; VEI 0.02): 0.03
BRCA2 mRNA relative expression ([2]; VEI 0.03): 0.13
CDKN2D mRNA relative expression ([2]; VEI 0.03): 0.03
MDM2 mRNA relative expression ([2]; VEI 0.03): 0.04
RHOB mRNA relative expression ([2]; VEI 0.03): 0.03
CDKN2C mRNA relative expression ([2]; VEI 0.04): 0.03
PK3R1 mRNA relative expression ([2]; VEI 0.04): 0.03
PTGS2 mRNA relative expression ([2]; VEI 0.04): 0.00
STATSB mRNA relative expression ([2]; VEI 0.04): 0.03
MAPK1 mRNA relative expression ([2]; VEI 0.05): 0.06
SMAD2 mRNA relative expression ([2]; VEI 0.05): 0.06
CCND1 mRNA relative expression ([2]; VEI 0.06): 0.09
MAP2K2 mRNA relative expression ([2]; VEI 0.06): 0.07
PK3CD mRNA relative expression ([2]; VEI 0.06): 0.07
TGFBR2 mRNA relative expression ([2]; VEI 0.06): 0.01
VEGFA mRNA relative expression ([2]; VEI 0.06): 0.03
VEGFB mRNA relative expression ([2]; VEI 0.06): 0.07
CCNA2 mRNA relative expression ([2]; VEI 0.07): 0.01
CCNE2 mRNA relative expression ([2]; VEI 0.07): 0.10
EZF3 mRNA relative expression ([2]; VEI 0.07): 0.07
SMAD4 mRNA relative expression ([2]; VEI 0.07): 0.07
SOS1 mRNA relative expression ([2]; VEI 0.07): 0.06
TGFB1 mRNA relative expression ([2]; VEI 0.07): 0.07
MAP2K1 mRNA relative expression ([2]; VEI 0.08): 0.00
MMP2 mRNA relative expression ([2]; VEI 0.08): 0.06
VEGFC mRNA relative expression ([2]; VEI 0.08): 0.03
CCNE1 mRNA relative expression ([2]; VEI 0.09): 0.08
CDK2 mRNA relative expression ([2]; VEI 0.09): 0.13
KRAS mRNA relative expression ([2]; VEI 0.09): 0.07
RAC1 mRNA relative expression ([2]; VEI 0.09): 0.09
REL mRNA relative expression ([2]; VEI 0.09): 0.10
STAT2 mRNA relative expression ([2]; VEI 0.09): 0.03
CDKN1B mRNA relative expression ([2]; VEI 0.10): 0.09
CDKN2A mRNA relative expression ([2]; VEI 0.10): 0.22
RELA mRNA relative expression ([2]; VEI 0.10): 0.06
AKT1 mRNA relative expression ([2]; VEI 0.11): 0.09
PK3CB mRNA relative expression ([2]; VEI 0.11): 0.08
FIGF mRNA relative expression ([2]; VEI 0.14): 0.09
TP53 mRNA relative expression ([2]; VEI 0.14): 0.24
EZF4 mRNA relative expression ([2]; VEI 0.16): 0.16
NFKB2 mRNA relative expression ([2]; VEI 0.16): 0.12
EZF1 mRNA relative expression ([2]; VEI 0.17): 0.13
SMAD3 mRNA relative expression ([2]; VEI 0.17): 0.16
STAT1 mRNA relative expression ([2]; VEI 0.18): 0.10
BRAF mRNA relative expression ([2]; VEI 0.22): 0.18
BIRC5 mRNA relative expression ([2]; VEI 0.23): 0.09
JAK1 mRNA relative expression ([2]; VEI 0.23): 0.22
CDK4 mRNA relative expression ([2]; VEI 0.24): 0.21
EGFR mRNA relative expression ([2]; VEI 0.24): 0.17
RAF1 mRNA relative expression ([2]; VEI 0.25): 0.01
CCNB1 mRNA relative expression ([2]; VEI 0.27): 0.31
ERBB2 mRNA relative expression ([2]; VEI 0.27): 0.01
SRC mRNA relative expression ([2]; VEI 0.27): 0.03
GRB2 mRNA relative expression ([2]; VEI 0.31): 0.11
BCL2L1 mRNA relative expression ([2]; VEI 0.35): 0.21
HSP90AA1 mRNA relative expression ([2]; VEI 0.35): 0.35
NFKB1 mRNA relative expression ([2]; VEI 0.35): 0.04
RHOA mRNA relative expression ([2]; VEI 0.37): 0.30
ELK1 mRNA relative expression ([2]; VEI 0.41): 0.07
RELB mRNA relative expression ([2]; VEI 0.42): 0.23
CDC42 mRNA relative expression ([2]; VEI 0.45): 0.04
CDKN1A mRNA relative expression ([2]; VEI 0.49): 0.03
AKT2 mRNA relative expression ([2]; VEI 0.50): 0.45
HBEGF mRNA relative expression ([2]; VEI 0.53): 0.11
NOTCH1 mRNA relative expression ([2]; VEI 1.03): 0.02
STAT6 mRNA relative expression ([2]; VEI 1.38): 0.87
STAT3 mRNA relative expression ([2]; VEI 4.45): 0.05
viability at 1.9 µg/mL [3]: 74.8 ± 7.2%
viability at 3.8 µg/mL [3]: 29.5 ± 1.9%
viability at 7.6 µg/mL [3]: 9.2 ± 0.4%
viability at 15.2 µg/mL [3]: 5.2 ± 0.4%
viability at 1.9 µg/mL [4]: 86.5 ± 7.1%
viability at 3.8 µg/mL [4]: 66.4 ± 5.5%
viability at 7.6 µg/mL [4]: 13.1 ± 1.1%
viability at 15.2 µg/mL [4]: 7.9 ± 0.3%
viability at 1.9 µg/mL ([5]; CBD 1.9 micrograms/ml): 74.8 ± 7.2%
viability at 3.8 µg/mL ([5]; CBD 3.8 micrograms/ml): 93.2 ± 4.2%
viability at 7.6 µg/mL ([5]; CBD 7.6 micrograms/ml): 93.4 ± 5.4%
viability at 15.2 µg/mL ([5]; CBD 15.2 micrograms/ml): 50.4 ± 3.4%
